Measured values published in patent US11572590B2, “Methods for evaluating tumor cell spheroids using 3D microfluidic cell culture device” (Dana-Farber Cancer Institute, Inc., priority 2017, dated 2023).
Like-named read-outs stand apart in the source and are kept apart here.

Experiments:
Experiment in all cases: SelectScreen Kinase Profiling, single point inhibition and IC50 for off-target kinases
Format in all cases: biochemical
off-target kinases [1] = molecular target: T1, off-target kinases (Homo sapiens, UniProt O15264); conditions: MAPK13 (p38 delta), ZLYTE, ATP Km app
T1 sequence (O15264 1-365): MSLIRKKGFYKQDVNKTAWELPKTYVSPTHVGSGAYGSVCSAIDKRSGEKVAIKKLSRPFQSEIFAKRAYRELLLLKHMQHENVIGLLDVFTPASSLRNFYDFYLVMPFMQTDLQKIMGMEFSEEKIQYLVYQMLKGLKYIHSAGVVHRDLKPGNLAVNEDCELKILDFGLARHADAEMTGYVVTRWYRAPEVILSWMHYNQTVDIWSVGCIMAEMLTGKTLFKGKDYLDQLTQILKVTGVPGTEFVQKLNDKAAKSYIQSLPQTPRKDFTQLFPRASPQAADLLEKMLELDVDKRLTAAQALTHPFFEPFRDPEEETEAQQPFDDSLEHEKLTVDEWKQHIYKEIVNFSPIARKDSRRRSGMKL

off-target kinases [2] = molecular target: off-target kinases (Homo sapiens, UniProt Q14012); conditions: CAMK1 (CaMK1), Adapta, ATP 10
off-target kinases [3] = molecular target: T2, off-target kinases (Homo sapiens, UniProt P51955); conditions: NEK2, ZLYTE, ATP Km app
T2 sequence (P51955 1-445): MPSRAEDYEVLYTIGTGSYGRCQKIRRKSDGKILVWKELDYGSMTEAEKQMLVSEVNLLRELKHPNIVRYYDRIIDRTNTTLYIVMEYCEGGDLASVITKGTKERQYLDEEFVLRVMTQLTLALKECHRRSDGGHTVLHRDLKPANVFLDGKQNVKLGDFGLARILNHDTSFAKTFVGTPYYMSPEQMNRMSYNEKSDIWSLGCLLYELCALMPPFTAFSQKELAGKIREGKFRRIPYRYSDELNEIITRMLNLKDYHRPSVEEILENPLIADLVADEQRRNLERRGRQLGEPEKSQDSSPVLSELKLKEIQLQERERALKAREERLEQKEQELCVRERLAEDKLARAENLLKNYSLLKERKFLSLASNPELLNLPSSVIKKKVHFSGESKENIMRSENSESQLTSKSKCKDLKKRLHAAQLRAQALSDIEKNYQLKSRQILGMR

off-target kinases [4] = molecular target: off-target kinases (Homo sapiens, UniProt P78362); conditions: SRPK2; Cmpd1 1000 μM; ATP Km app; ZLYTE
off-target kinases [5] = molecular target: off-target kinases (Homo sapiens, UniProt Q9Y6E0); conditions: STK24 (MST3), ZLYTE, ATP Km app
off-target kinases [6] = molecular target: off-target kinases (Homo sapiens, UniProt P22607, G697C); conditions: FGFR3 G697C (mutant), LanthaScreen Binding
off-target kinases [7] = molecular target: off-target kinases (Homo sapiens, UniProt P16234); conditions: PDGFRA (PDGFR alpha), ATP Km app, ZLYTE
off-target kinases [8] = molecular target: off-target kinases (Homo sapiens, UniProt O75582); conditions: RPS6KA5 (MSK1), ZLYTE, ATP Km app
off-target kinases [9] = molecular target: off-target kinases (Homo sapiens, UniProt O75716); conditions: STK16 (PKL12), LanthaScreen Binding
Sequence of off-target kinases (Homo sapiens, UniProt O75716) (O75716 whole entry): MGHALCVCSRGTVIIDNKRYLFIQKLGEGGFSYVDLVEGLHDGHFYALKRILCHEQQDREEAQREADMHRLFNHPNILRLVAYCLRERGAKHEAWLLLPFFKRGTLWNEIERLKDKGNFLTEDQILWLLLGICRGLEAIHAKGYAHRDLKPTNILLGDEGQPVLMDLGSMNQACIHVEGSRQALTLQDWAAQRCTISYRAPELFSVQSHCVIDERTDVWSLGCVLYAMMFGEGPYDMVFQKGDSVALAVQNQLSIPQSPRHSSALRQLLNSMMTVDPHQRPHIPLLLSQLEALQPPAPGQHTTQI

Sequence of off-target kinases (Homo sapiens, UniProt Q9Y6E0) (Q9Y6E0 whole entry): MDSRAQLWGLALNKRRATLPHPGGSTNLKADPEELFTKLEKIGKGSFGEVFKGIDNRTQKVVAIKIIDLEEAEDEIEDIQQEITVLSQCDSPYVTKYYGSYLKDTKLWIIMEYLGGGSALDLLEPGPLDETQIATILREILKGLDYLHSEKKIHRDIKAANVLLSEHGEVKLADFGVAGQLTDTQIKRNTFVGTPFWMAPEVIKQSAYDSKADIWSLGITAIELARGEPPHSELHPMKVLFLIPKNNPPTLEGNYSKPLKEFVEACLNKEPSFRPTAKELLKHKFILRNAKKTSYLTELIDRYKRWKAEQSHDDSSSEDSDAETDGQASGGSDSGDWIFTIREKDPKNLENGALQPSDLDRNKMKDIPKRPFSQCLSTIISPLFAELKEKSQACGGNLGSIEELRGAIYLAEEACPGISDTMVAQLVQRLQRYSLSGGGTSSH
Sequence of off-target kinases (Homo sapiens, UniProt Q14012) (Q14012 whole entry): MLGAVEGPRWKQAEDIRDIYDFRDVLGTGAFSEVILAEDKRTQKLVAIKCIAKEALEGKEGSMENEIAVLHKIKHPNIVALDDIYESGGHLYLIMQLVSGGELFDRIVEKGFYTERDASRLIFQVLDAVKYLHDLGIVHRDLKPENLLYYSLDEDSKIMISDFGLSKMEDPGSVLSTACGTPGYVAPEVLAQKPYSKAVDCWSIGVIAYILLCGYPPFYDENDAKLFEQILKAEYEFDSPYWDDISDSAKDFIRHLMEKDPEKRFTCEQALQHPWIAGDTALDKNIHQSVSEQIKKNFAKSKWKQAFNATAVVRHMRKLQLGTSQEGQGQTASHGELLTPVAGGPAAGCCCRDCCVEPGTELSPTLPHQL
Sequence of off-target kinases (Homo sapiens, UniProt P16234) (P16234 24-1089): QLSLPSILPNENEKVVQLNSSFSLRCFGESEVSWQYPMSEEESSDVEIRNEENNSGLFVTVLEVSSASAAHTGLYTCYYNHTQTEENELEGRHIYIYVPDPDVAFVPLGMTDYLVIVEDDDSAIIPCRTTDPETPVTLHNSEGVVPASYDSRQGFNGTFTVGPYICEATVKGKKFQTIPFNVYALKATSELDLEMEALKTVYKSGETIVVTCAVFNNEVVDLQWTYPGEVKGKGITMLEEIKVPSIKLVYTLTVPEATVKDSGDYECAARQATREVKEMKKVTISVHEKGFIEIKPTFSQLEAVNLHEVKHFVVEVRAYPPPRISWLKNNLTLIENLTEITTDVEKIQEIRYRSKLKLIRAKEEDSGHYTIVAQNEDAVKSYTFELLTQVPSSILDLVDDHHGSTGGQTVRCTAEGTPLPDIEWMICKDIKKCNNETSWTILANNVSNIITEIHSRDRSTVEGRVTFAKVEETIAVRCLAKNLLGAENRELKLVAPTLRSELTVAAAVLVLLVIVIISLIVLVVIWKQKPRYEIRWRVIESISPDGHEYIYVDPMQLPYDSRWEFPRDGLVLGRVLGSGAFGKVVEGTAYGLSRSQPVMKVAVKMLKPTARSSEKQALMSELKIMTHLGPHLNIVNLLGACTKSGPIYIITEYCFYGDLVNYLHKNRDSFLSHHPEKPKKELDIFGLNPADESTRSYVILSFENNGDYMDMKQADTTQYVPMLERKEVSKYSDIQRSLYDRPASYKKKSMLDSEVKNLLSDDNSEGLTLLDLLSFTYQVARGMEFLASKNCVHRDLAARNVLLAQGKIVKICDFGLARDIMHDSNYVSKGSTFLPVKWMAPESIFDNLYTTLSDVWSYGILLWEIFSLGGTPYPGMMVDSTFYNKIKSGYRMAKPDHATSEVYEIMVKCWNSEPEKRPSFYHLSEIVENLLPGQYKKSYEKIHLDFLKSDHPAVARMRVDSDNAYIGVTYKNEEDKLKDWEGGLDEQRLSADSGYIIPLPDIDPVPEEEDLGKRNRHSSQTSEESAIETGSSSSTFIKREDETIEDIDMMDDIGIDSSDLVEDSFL
Sequence of off-target kinases (Homo sapiens, UniProt P78362) (P78362 whole entry): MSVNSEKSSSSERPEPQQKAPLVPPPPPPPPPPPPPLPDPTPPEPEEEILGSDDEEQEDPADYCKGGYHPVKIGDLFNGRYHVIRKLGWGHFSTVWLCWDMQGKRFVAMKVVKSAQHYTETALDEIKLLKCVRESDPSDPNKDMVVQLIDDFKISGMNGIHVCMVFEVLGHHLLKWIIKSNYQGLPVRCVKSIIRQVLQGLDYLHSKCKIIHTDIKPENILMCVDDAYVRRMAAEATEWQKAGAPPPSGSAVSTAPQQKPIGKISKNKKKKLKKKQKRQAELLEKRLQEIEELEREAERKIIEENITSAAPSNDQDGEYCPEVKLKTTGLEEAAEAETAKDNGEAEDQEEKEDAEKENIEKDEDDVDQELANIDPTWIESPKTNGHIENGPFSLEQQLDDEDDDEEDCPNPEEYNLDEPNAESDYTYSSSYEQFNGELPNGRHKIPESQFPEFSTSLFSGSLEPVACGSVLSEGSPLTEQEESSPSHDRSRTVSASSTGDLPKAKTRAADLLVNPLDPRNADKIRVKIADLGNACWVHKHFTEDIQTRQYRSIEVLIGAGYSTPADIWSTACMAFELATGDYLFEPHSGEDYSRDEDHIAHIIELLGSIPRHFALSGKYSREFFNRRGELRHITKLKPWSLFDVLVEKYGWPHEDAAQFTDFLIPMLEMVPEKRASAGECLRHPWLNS
Sequence of off-target kinases (Homo sapiens, UniProt P22607, G697C) (P22607 23-806 G697C): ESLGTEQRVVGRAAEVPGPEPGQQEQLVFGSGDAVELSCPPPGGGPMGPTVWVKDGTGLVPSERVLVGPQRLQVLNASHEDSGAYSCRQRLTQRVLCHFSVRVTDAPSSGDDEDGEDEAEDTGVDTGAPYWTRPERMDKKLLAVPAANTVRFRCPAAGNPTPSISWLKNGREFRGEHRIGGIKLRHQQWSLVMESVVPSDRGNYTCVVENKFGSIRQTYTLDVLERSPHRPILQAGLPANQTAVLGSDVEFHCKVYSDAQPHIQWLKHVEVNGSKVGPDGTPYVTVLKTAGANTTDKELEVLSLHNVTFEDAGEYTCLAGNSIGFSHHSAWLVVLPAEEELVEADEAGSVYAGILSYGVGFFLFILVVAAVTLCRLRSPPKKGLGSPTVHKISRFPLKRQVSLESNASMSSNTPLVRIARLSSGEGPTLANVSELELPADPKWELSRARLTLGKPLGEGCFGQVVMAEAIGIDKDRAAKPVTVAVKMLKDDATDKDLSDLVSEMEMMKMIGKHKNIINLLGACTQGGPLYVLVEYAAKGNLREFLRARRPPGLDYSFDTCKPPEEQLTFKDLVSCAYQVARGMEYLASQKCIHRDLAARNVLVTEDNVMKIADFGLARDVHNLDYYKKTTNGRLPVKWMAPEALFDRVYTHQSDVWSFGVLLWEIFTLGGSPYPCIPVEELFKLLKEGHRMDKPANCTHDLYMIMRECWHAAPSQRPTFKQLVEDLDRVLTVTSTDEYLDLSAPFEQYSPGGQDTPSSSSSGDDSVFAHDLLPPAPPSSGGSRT
Sequence of off-target kinases (Homo sapiens, UniProt O75582) (O75582 whole entry): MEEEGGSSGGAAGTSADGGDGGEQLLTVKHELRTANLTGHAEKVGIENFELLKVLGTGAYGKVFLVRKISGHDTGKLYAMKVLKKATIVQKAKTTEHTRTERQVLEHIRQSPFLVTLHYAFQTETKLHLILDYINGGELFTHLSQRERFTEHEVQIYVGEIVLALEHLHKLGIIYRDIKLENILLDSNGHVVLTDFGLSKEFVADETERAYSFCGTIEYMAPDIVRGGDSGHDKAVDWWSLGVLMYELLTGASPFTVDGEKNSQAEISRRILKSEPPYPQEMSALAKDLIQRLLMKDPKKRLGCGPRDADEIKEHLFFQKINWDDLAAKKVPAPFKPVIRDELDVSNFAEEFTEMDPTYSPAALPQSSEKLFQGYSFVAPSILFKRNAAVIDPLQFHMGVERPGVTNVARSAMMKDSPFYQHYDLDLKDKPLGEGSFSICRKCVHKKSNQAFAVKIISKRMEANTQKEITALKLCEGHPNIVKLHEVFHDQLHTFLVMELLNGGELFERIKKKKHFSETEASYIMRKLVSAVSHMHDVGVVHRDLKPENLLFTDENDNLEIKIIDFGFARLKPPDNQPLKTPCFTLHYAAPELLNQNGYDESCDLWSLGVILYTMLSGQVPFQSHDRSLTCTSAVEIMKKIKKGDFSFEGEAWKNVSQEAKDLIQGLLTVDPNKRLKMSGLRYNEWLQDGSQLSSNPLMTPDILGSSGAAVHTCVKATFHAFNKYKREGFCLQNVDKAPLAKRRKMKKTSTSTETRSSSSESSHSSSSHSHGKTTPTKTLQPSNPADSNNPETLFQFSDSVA

Structure (SMILES): N#Cc1cc(-c2ncnc(Nc3ccc(N4CCN(C5COC5)CC4)cc3)n2)ccc1OC1CCOCC1 [Compound 1, 5-(4-((4-(4-(oxetan-3-yl)piperazin-1-yl)phenyl)amino)-1,3,5-triazin-2-yl)-2-((tetrahydro-2H-pyran-4-yl)oxy)benzonitrile]
- inhibition (off-target kinases [1]; read-out: % Inhibition 1): 7%
- inhibition (off-target kinases [1]; read-out: % Inhibition 2): 9%
- inhibition (off-target kinases [1]; read-out: % Inhibition Avg): 8%
- inhibition (off-target kinases [2]; read-out: % Inhibition 1): 7%
- inhibition (off-target kinases [2]; read-out: % Inhibition 2): 8%
- inhibition (off-target kinases [2]; read-out: % Inhibition Avg): 7%
- inhibition (off-target kinases [3]; read-out: % Inhibition 1): 29%
- inhibition (off-target kinases [3]; read-out: % Inhibition 2): 30%
- inhibition (off-target kinases [3]; read-out: % Inhibition Avg): 30%
- % Inhibition 1 (off-target kinases [4]): −2%
- % Inhibition 2 (off-target kinases [4]): −4%
- % Inhibition Avg (off-target kinases [4]): −3%
- inhibition (off-target kinases [5]; read-out: % Inhibition 1): -5%
- inhibition (off-target kinases [5]; read-out: % Inhibition 2): 8%
- inhibition (off-target kinases [5]; read-out: % Inhibition Avg): 1%
- inhibition (off-target kinases [6]; read-out: % Inhibition 1): 13%
- inhibition (off-target kinases [6]; read-out: % Inhibition 2): 4%
- inhibition (off-target kinases [6]; read-out: % Inhibition Avg): 8%
- inhibition (off-target kinases [7]; read-out: % Inhibition 1): 43%
- inhibition (off-target kinases [7]; read-out: % Inhibition 2): 43%
- inhibition (off-target kinases [7]; read-out: % Inhibition Avg): 43%
- inhibition (off-target kinases [8]; read-out: % Inhibition 1): 6%
- inhibition (off-target kinases [8]; read-out: % Inhibition 2): 3%
- inhibition (off-target kinases [8]; read-out: % Inhibition Avg): 4%
- inhibition (off-target kinases [9]; read-out: % Inhibition 1): 95%
- inhibition (off-target kinases [9]; read-out: % Inhibition 2): 93%
- inhibition (off-target kinases [9]; read-out: % Inhibition Avg): 94%
